Experimental data published in US4479951A, “1.4;3.6-Dianhydrohexitol nitrates substituted by purine bases, processes for their preparation and pharmaceutical compositions” (Dr. Willmar Schwabe GmbH & Co., priority 1980, dated 1984).

System: mongrel dogs
Assay: circulatory-pharmacological effectiveness on the narcotised dog, intravenous administration
Type: in vivo

Nc1ncnc2c1ncn2[C@H]1CO[C@H]2[C@@H]1OC[C@@H]2O[N+](=O)[O-] [1c/2c, 5-(9-Adenyl)-5-desoxy-1.4;3.6-dianhydro-L-iditol 2-nitrate]
APdiast: diastolic aorta pressure (120 min after i.v. 1 mg/kg): 93.7 mm.Hg
APsyst: systolic aorta pressure (120 min after i.v. 1 mg/kg): 143.4 mm.Hg
BFFem: blood flow in the A. femoralis, referred to 20 kg. body weight (120 min after i.v. 1 mg/kg): 58.6 mL/min
HF: heart frequency (120 min after i.v. 1 mg/kg): 98.7 min⁻¹
HLL: heart capacity left, referred to 20 kg. body weight (120 min after i.v. 1 mg/kg): 0.89 W
HLR: heart capacity right, referred to 20 kg. body weight (120 min after i.v. 1 mg/kg): 98.7 mW
HZV: heart minute volume, referred to 20 kg. body weight (120 min after i.v. 1 mg/kg): 3.85 L/min
LVEDP: end diastolic pressure in the left ventricle (120 min after i.v. 1 mg/kg): 6.37 mm.Hg
PAP: average pressure in the A. pulmonalis (120 min after i.v. 1 mg/kg): 15.1 ±2.3 mm.Hg
PRA: pressure in the right atrium (120 min after i.v. 1 mg/kg): 3.94 mm.Hg
SV: beat volume, referred to 20 kg. body weight (120 min after i.v. 1 mg/kg): 40.0 mL
WAP: pulmonalis resistance, referred to 20 kg. body weight (120 min after i.v. 1 mg/kg): 0.30 U
WFem: femoralis resistance, referred to 20 kg. body weight (120 min after i.v. 1 mg/kg): 0.25 KU
WTP: total peripheral resistance, referred to 20 kg. body weight (120 min after i.v. 1 mg/kg): 3.72 U
dp/dt: rate of pressure increase in the left ventricle (120 min after i.v. 1 mg/kg): 2043.7 mm.Hg/sec.
APdiast: diastolic aorta pressure (150 min after i.v. 1 mg/kg): 94.7 mm.Hg
APsyst: systolic aorta pressure (150 min after i.v. 1 mg/kg): 147.2 mm.Hg
BFFem: blood flow in the A. femoralis, referred to 20 kg. body weight (150 min after i.v. 1 mg/kg): 58.2 mL/min
HF: heart frequency (150 min after i.v. 1 mg/kg): 97.5 min⁻¹
HLL: heart capacity left, referred to 20 kg. body weight (150 min after i.v. 1 mg/kg): 0.91 W
HLR: heart capacity right, referred to 20 kg. body weight (150 min after i.v. 1 mg/kg): 98.0 mW
HZV: heart minute volume, referred to 20 kg. body weight (150 min after i.v. 1 mg/kg): 3.89 L/min
LVEDP: end diastolic pressure in the left ventricle (150 min after i.v. 1 mg/kg): 6.97 mm.Hg
PAP: average pressure in the A. pulmonalis (150 min after i.v. 1 mg/kg): 15.1 ±1.5 mm.Hg
PRA: pressure in the right atrium (150 min after i.v. 1 mg/kg): 4.03 mm.Hg
SV: beat volume, referred to 20 kg. body weight (150 min after i.v. 1 mg/kg): 41.0 mL
WAP: pulmonalis resistance, referred to 20 kg. body weight (150 min after i.v. 1 mg/kg): 0.27 U
WFem: femoralis resistance, referred to 20 kg. body weight (150 min after i.v. 1 mg/kg): 0.26 KU
WTP: total peripheral resistance, referred to 20 kg. body weight (150 min after i.v. 1 mg/kg): 3.73 U
dp/dt: rate of pressure increase in the left ventricle (150 min after i.v. 1 mg/kg): 1950.0 mm.Hg/sec.
APdiast: diastolic aorta pressure (180 min after i.v. 1 mg/kg): 91.9 mm.Hg
APsyst: systolic aorta pressure (180 min after i.v. 1 mg/kg): 143.4 mm.Hg
BFFem: blood flow in the A. femoralis, referred to 20 kg. body weight (180 min after i.v. 1 mg/kg): 59.4 mL/min
HF: heart frequency (180 min after i.v. 1 mg/kg): 95.5 min⁻¹
HLL: heart capacity left, referred to 20 kg. body weight (180 min after i.v. 1 mg/kg): 0.91 W
HLR: heart capacity right, referred to 20 kg. body weight (180 min after i.v. 1 mg/kg): 98.5 mW
HZV: heart minute volume, referred to 20 kg. body weight (180 min after i.v. 1 mg/kg): 4.03 L/min
LVEDP: end diastolic pressure in the left ventricle (180 min after i.v. 1 mg/kg): 7.69 mm.Hg
PAP: average pressure in the A. pulmonalis (180 min after i.v. 1 mg/kg): 14.9 ±1.3 mm.Hg
PRA: pressure in the right atrium (180 min after i.v. 1 mg/kg): 4.12 mm.Hg
SV: beat volume, referred to 20 kg. body weight (180 min after i.v. 1 mg/kg): 42.6 mL
WAP: pulmonalis resistance, referred to 20 kg. body weight (180 min after i.v. 1 mg/kg): 0.24 U
WFem: femoralis resistance, referred to 20 kg. body weight (180 min after i.v. 1 mg/kg): 0.24 KU
WTP: total peripheral resistance, referred to 20 kg. body weight (180 min after i.v. 1 mg/kg): 3.51 U
dp/dt: rate of pressure increase in the left ventricle (180 min after i.v. 1 mg/kg): 1593.7 mm.Hg/sec.
APdiast: diastolic aorta pressure (before i.v. 1 mg/kg (v)): 88.1 mm.Hg
APsyst: systolic aorta pressure (before i.v. 1 mg/kg (v)): 150.9 mm.Hg
BFFem: blood flow in the A. femoralis, referred to 20 kg. body weight (before i.v. 1 mg/kg (v)): 53.4 mL/min
HF: heart frequency (before i.v. 1 mg/kg (v)): 97.5 min⁻¹
HLL: heart capacity left, referred to 20 kg. body weight (before i.v. 1 mg/kg (v)): 0.83 W
HLR: heart capacity right, referred to 20 kg. body weight (before i.v. 1 mg/kg (v)): 96.0 mW
HZV: heart minute volume, referred to 20 kg. body weight (before i.v. 1 mg/kg (v)): 3.61 L/min
LVEDP: end diastolic pressure in the left ventricle (before i.v. 1 mg/kg (v)): 5.53 mm.Hg
PAP: average pressure in the A. pulmonalis (before i.v. 1 mg/kg (v)): 15.8 ±1.4 mm.Hg
PRA: pressure in the right atrium (before i.v. 1 mg/kg (v)): 3.94 mm.Hg
SV: beat volume, referred to 20 kg. body weight (before i.v. 1 mg/kg (v)): 38.3 mL
WAP: pulmonalis resistance, referred to 20 kg. body weight (before i.v. 1 mg/kg (v)): 0.38 U
WFem: femoralis resistance, referred to 20 kg. body weight (before i.v. 1 mg/kg (v)): 0.28 KU
WTP: total peripheral resistance, referred to 20 kg. body weight (before i.v. 1 mg/kg (v)): 3.94 U
dp/dt: rate of pressure increase in the left ventricle (before i.v. 1 mg/kg (v)): 2081.2 mm.Hg/sec.
